Measurements: ChEMBL document CHEMBL1201862, “PubChem BioAssay data set” (2004)
Calls of active or inactive are those of the source.

Experiments:
[1] = molecular target: T1, Short transient receptor potential channel 4 (Mus musculus, UniProt Q9QUQ5); assay: TRPC4 positive allosteric modulators, dose response, cell-based, HEK293 TRPC4/mu-opioid, Fluo-4 calcium, EC20 DAMGO (AID 434941); assay type: functional
T1 sequence (Q9QUQ5 whole entry): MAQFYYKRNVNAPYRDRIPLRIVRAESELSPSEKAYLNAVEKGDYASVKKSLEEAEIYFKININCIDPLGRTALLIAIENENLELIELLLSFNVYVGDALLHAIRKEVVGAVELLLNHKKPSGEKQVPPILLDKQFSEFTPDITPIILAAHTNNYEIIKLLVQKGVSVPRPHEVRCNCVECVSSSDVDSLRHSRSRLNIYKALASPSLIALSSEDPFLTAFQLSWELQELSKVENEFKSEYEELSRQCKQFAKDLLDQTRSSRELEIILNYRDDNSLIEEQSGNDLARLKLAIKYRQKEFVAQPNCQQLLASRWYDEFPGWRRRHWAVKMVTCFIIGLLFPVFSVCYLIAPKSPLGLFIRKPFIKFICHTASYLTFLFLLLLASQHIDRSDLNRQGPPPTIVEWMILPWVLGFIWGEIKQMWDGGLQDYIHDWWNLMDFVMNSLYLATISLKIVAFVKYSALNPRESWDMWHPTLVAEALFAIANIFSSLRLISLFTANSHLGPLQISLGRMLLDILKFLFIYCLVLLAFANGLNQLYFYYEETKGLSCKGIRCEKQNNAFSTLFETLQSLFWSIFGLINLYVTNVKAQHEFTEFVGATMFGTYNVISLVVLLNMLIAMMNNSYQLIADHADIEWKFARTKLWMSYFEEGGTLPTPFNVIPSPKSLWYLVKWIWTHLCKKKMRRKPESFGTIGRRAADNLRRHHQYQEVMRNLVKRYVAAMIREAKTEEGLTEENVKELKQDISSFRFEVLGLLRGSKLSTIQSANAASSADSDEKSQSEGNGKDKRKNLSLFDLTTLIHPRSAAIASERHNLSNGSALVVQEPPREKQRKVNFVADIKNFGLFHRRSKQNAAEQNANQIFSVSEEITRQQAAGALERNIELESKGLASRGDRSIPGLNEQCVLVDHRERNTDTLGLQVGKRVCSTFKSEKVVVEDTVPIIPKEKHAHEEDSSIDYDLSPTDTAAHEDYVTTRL

[2] = molecular target: T2, DNA dC->dU-editing enzyme APOBEC-3A (Homo sapiens, UniProt P31941); assay: Dose Response confirmation of small molecule APOBEC3A DNA Deaminase Inhibitors via a fluorescence-based single-stranded DNA deaminase assay. [Related pubchem assays (depositor defined):AID493011, AID493024]; assay type: functional
T2 sequence (P31941 whole entry): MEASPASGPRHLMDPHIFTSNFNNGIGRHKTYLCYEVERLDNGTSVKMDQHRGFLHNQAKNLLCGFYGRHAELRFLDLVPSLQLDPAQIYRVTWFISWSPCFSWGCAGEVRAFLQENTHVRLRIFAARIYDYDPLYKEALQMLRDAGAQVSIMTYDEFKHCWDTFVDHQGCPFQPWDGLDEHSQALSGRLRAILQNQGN

[3] = molecular target: T3, DNA dC->dU-editing enzyme APOBEC-3G (Homo sapiens, UniProt Q9HC16); assay type: functional
T3 sequence (Q9HC16 whole entry): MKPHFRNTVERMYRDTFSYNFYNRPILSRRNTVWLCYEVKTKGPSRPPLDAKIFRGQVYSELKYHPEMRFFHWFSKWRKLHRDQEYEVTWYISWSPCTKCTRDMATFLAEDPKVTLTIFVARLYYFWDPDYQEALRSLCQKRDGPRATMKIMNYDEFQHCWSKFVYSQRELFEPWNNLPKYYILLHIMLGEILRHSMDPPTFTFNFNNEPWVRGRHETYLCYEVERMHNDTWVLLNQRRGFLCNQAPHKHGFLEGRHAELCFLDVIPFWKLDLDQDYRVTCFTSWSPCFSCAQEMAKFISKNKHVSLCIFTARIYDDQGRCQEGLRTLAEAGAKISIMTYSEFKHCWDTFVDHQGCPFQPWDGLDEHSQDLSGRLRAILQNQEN

[4] = molecular target: T4, Tyrosine-protein phosphatase non-receptor type 7 (Homo sapiens, UniProt P35236); assay: redox-dependent HePTP inhibition, mechanism study, biochemical, fluorescence (AID 2068); assay type: functional
T4 sequence (P35236 whole entry): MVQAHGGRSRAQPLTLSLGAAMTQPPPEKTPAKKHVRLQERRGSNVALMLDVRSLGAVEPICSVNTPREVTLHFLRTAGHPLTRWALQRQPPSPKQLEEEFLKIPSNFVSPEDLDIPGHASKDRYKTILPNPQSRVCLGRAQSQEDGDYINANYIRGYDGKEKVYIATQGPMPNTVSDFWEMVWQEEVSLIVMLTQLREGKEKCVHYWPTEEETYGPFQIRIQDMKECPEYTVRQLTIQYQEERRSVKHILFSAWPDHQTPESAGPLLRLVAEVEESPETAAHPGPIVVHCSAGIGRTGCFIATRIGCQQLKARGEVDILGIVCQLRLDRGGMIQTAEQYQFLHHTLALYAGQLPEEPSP

[5] = molecular target: Induced myeloid leukemia cell differentiation protein Mcl-1 (Homo sapiens, UniProt Q07820); assay type: functional
Sequence of Induced myeloid leukemia cell differentiation protein Mcl-1 (Q07820 whole entry): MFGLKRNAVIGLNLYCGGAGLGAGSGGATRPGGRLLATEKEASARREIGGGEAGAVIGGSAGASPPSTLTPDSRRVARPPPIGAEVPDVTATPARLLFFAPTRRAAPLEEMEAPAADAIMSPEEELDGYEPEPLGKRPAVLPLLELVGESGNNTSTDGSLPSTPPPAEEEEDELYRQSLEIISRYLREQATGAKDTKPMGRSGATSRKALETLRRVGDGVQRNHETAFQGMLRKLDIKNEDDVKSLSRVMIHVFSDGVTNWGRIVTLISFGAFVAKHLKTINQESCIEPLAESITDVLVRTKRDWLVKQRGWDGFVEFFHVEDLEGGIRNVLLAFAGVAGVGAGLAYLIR

[6] = HeLa cell cytotoxicity, dose response, cytotoxicity control for MgcRacGAP inhibitor project (AID 624300); assay type: functional
Coagulation factor XII = molecular target: T5, Coagulation factor XII (Homo sapiens, UniProt P00748); assay type: functional;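 also: activated factor XIIa alpha cleaving a fluorogenic AMC peptide substrate; inhibitor potency from loss of enzyme activity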
T5 sequence (P00748 whole entry): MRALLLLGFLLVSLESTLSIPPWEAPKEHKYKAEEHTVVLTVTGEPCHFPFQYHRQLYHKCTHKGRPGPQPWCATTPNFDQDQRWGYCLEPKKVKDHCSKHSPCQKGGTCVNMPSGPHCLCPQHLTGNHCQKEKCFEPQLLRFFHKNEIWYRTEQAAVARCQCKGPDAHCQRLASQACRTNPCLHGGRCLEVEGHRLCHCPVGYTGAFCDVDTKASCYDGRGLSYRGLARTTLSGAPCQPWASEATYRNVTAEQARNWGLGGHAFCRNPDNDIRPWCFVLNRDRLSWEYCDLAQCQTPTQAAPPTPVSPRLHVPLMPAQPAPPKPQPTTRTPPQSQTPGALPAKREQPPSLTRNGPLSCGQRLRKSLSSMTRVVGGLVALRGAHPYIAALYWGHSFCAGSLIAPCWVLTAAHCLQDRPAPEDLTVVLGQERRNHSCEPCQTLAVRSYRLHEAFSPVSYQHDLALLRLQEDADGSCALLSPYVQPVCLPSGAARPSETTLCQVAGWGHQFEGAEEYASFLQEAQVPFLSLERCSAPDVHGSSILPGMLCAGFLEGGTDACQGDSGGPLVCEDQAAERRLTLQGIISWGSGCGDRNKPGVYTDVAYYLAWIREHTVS

[7] = molecular target: T6, Rac GTPase-activating protein 1 (Homo sapiens, UniProt Q9H0H5); assay: MgcRacGAP GTPase-activating activity inhibitors, confirmation, biochemical, ADP Hunter fluorescence, primary and confirmatory (AID 624330); assay type: functional
T6 sequence (Q9H0H5 whole entry): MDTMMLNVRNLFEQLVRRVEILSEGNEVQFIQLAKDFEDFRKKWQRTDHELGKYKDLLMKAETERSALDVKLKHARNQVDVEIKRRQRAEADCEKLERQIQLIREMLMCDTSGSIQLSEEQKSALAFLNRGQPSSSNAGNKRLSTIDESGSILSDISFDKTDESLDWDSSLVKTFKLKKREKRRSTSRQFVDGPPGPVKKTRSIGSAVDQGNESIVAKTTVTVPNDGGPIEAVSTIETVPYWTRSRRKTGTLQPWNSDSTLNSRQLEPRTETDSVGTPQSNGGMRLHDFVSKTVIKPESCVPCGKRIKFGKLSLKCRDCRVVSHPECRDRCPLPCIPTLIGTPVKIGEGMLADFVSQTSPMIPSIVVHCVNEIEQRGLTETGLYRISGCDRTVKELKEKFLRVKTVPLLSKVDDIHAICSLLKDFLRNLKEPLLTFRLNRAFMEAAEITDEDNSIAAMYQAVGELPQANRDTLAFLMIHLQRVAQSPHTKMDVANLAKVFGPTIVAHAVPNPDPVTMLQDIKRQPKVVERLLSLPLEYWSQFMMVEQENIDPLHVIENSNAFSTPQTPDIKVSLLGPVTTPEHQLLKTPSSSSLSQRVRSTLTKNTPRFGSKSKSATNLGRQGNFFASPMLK

[8] = molecular target: G-protein coupled receptor 55 (Homo sapiens, UniProt Q9Y2T6); assay: GPR55 agonists via beta-arrestin recruitment, primary screen, imaging, U2OS cells, beta-arrestin-GFP redistribution (AID 1961); assay type: functional
Sequence of G-protein coupled receptor 55 (Q9Y2T6 whole entry): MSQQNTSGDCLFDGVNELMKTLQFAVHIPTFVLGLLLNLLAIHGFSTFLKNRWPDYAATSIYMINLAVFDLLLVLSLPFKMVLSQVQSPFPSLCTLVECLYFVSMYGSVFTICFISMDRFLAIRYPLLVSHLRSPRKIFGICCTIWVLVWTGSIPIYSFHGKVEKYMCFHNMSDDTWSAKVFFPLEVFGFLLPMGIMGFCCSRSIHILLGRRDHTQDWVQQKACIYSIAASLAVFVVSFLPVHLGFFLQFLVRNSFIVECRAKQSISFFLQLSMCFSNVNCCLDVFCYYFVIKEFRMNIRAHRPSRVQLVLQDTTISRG

[9] = Luminescence Cell-Based Dose Response HTS to Identify Activators of Luciferase Translation or Activity in H4 […] Cells. [Related pubchem assays: 1829 (Project Summary), 1814 (Primary HTS)]; assay type: functional
H4 = assay: Luminescence Cell-Based Dose Response HTS to Identify Activators of 5'UTR Stem-Loop Driven Prion Protein mRNA Translation in H4 Neuroglioblastoma Cells. [Related pubchem assays: 1829 (Project Summary), 1814 (Primary HTS)]; assay type: functional; conditions: Homo sapiens
[10] = Luminescence Cell-Based Dose Confirmation HTS to Identify Activators of 5'UTR Stem-Loop Driven Alpha-Synuclein mRNA Translation in H4 Neuroglioblastoma Cells. [Related pubchem assays: 1829 (Project Summary), 1814 (Primary HTS)]; assay type: functional
[11] = molecular target: Peroxisome proliferator-activated receptor gamma/Nuclear receptor coactivator 2 (Homo sapiens, UniProt P37231); assay: TR-FRET dose response biochemical High Throughput Screening assay for agonists of the steroid receptor coactivator 2 (SRC-2) recruitment by the peroxisome proliferator-activated receptor gamma (PPAR gamma): non-selective agonists. [Related pubchem assays: 1297, 1032 ]; assay type: functional
[12] = molecular target: Peroxisome proliferator-activated receptor gamma/Nuclear receptor coactivator 1 (Homo sapiens, UniProt P37231); assay: TR-FRET dose response biochemical High Throughput Screening assay for agonists of the steroid receptor coactivator 1 (SRC-1) recruitment by the peroxisome proliferator-activated receptor gamma (PPAR gamma): non-selective agonists. [Related pubchem assays (depositor defined):AID1300, AID1808, AID504735, AID631]; assay type: protein assay
[13] = molecular target: Peroxisome proliferator-activated receptor gamma/Nuclear receptor coactivator 3 (Homo sapiens, UniProt P37231); assay: TR-FRET dose response biochemical High Throughput Screening assay for agonists of the steroid receptor coactivator 3 (SRC-3) recruitment by the peroxisome proliferator-activated receptor gamma (PPAR gamma): non-selective agonists. [Related pubchem assays: 1301 (Confirmation screen.), 1048 (Primary screen.)]; assay type: functional
Sequence of Peroxisome proliferator-activated receptor gamma/Nuclear receptor coactivator 3 (P37231 whole entry): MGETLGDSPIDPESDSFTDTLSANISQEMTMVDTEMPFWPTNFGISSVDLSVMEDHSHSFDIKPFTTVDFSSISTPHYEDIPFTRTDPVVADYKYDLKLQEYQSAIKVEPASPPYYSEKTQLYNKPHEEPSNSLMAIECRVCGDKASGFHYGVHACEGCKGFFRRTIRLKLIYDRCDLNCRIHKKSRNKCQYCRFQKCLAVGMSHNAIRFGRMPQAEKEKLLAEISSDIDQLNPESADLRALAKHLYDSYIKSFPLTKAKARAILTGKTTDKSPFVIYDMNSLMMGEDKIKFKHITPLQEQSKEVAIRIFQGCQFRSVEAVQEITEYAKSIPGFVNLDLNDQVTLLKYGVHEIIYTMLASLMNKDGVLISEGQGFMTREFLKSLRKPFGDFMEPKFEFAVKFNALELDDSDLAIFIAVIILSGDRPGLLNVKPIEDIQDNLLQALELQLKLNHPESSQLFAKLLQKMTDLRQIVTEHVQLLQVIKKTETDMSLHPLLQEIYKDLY
Sequence of Peroxisome proliferator-activated receptor gamma/Nuclear receptor coactivator 3 (Q9Y6Q9 whole entry, further chain): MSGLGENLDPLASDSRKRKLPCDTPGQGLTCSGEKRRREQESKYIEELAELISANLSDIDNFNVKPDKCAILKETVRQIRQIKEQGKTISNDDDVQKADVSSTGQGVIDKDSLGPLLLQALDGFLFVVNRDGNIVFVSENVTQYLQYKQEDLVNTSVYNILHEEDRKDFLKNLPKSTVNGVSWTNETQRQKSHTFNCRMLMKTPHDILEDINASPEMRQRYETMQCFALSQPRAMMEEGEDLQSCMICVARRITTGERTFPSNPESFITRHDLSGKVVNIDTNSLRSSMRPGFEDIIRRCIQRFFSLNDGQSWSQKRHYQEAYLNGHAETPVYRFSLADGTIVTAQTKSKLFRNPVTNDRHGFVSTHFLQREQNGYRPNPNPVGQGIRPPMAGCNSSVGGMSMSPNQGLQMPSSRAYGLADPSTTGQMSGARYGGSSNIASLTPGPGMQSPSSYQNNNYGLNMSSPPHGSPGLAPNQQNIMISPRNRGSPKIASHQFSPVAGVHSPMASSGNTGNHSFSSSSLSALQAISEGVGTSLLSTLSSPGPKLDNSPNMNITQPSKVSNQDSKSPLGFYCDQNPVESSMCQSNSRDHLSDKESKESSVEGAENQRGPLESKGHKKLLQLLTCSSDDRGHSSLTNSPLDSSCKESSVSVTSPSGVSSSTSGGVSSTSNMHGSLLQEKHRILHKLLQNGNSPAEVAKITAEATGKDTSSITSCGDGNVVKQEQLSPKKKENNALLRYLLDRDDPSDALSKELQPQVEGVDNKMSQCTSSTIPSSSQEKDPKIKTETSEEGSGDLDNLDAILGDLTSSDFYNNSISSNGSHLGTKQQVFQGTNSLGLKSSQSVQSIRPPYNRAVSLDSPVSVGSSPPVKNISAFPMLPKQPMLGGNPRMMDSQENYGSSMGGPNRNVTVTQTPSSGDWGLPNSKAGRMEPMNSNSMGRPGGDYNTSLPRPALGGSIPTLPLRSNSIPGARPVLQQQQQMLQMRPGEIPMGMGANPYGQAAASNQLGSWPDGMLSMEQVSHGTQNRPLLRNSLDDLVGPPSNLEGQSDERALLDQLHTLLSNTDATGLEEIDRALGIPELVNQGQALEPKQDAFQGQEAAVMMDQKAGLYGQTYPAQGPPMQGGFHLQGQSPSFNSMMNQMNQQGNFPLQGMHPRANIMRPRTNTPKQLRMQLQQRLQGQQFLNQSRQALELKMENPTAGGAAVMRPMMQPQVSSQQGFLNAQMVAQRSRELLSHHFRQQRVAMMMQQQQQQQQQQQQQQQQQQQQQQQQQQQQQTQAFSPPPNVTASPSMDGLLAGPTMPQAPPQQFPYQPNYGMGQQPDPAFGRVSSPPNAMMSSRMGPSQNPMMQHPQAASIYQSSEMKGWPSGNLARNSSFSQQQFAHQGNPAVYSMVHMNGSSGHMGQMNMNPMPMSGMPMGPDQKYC

[14] = molecular target: T2, DNA dC->dU-editing enzyme APOBEC-3A; assay: APOBEC3A DNA deaminase inhibitors, dose response, biochemical (AID 504722); assay type: functional
[15] = molecular target: T3, DNA dC->dU-editing enzyme APOBEC-3G; assay: Dose Response confirmation of small molecule APOBEC3G DNA Deaminase Inhibitors via a fluorescence-based single-stranded DNA deaminase assay. [Related pubchem assays (depositor defined):AID493012, AID493028]; assay type: functional
[16] = molecular target: Glyceraldehyde-3-phosphate dehydrogenase (Homo sapiens, UniProt P04406)
Sequence of Glyceraldehyde-3-phosphate dehydrogenase (P04406 whole entry): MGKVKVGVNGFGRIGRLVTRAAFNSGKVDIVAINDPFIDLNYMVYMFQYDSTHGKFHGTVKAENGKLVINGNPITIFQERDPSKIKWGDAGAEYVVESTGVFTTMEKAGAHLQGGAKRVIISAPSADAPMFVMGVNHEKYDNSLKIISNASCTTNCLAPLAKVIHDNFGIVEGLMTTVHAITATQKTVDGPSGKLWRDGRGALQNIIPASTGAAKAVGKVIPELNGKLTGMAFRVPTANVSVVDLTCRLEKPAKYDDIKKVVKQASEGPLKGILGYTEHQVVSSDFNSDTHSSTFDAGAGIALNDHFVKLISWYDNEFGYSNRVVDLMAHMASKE

[17] = molecular target: T7, Alkaline phosphatase, tissue-nonspecific isozyme (Homo sapiens, UniProt P05186); assay: human TNAP enzyme inhibitors, SAR follow-up, biochemical, luminescent, dose response (AID 1056)
T7 sequence (P05186 whole entry): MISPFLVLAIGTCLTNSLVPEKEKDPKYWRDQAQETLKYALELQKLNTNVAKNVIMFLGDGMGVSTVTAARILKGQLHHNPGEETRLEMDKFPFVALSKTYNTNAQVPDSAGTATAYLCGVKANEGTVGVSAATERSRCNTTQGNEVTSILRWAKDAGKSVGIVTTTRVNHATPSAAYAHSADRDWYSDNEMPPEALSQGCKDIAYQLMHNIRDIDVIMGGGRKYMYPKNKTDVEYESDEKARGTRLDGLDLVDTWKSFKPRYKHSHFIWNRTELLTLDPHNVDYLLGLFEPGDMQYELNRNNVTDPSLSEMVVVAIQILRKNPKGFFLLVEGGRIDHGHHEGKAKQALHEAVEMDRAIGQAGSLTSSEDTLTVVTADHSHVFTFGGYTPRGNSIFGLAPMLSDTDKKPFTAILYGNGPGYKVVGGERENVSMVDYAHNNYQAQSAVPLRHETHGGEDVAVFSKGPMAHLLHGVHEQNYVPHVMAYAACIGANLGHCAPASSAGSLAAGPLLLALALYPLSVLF

[18] = cytotoxicity in HPDE-C7 cells, cell-based, fluorescence, HTS (AID 430); assay type: functional; conditions: Homo sapiens
[19] = cytotoxicity in KRAS-transformed pancreatic duct cells, primary screen, cell-based, fluorescence, HTS (AID 431); assay type: functional; conditions: Homo sapiens;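 also: cell line used: HPDE-C7K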
[20] = molecular target: T8, Dual specificity protein phosphatase 6 (Rattus norvegicus, UniProt Q64346); assay type: functional;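 also: confirmatory in vitro dose-response testing of MKP-3 inhibition; recombinant His-tagged MKP-3 made in E. coli BL21 with OMFP substrate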
T8 sequence (Q64346 whole entry): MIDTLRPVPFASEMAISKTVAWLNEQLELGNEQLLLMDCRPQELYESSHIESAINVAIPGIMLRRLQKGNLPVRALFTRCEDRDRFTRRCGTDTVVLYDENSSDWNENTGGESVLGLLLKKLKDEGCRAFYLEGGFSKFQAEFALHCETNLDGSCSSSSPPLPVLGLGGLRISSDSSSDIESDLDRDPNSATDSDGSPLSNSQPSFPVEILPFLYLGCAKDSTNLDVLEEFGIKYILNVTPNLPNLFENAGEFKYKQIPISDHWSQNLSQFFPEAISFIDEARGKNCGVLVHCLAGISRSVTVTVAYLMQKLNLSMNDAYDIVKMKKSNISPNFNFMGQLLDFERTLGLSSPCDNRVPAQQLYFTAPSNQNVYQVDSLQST

O=C(CCN1CCN(Cc2ccccc2)CC1)Nc1ccc(OCc2ccccc2)cc1
EC50 [1]: 0.13 µM (active)

CCCC[N@+]12CC[C@H](CC1)C(=C(c1ccccc1)c1ccccc1)C2
IC50 [2]: 2.16 µM (active) | IC50 [3]: 2.19 µM (active)

CC1(C)CC2CC(C)(CN2C(=O)Nc2ccc3nc(-c4ccco4)c(-c4ccco4)nc3c2)C1 (stereo not drawn)
IC50 [4]: 2.92 µM (active)

O=C1NC(=S)N(C2CC2)C(=O)/C1=C/c1ccc2c(c1)CCN2CCCCl
IC50 [5]: 2.61 µM (active) | CC50 [6]: 85.4 µM (active) | IC50 (Coagulation factor XII): > 50 µM (inactive) | IC50 [7]: 95.6 µM (active)

Cc1[nH]c2ccc(-c3nnc(SCC(=O)NCc4ccco4)n3Cc3ccccc3)cc2c1C
EC50 [8]: 5.78 µM (active)

CC(C)(C)C(=O)c1cn(CC(=O)NCc2ccco2)c2ccccc12
IC50 [2]: 3.56 µM (active) | IC50 [3]: 4.75 µM (active) | EC50 [9]: 15.9 µM (active) | EC50 (H4): 13.2 µM (active) | EC50 [10]: 14.9 µM (active)

COC(=O)CNc1nnc(S)nc1O
EC50 [11]: 2.15 µM (active) | EC50 [12]: 1.61 µM (active) | EC50 [13]: 53.6 µM (not active)

COC(=O)/C(=C/Nc1ccccc1)[N+](=O)[O-]
IC50 (Coagulation factor XII): > 50 µM (inactive)

CCn1c(S)nnc1CSc1nc2ccccc2s1
IC50 [14]: > 100 µM (inactive) | IC50 [15]: 3.73 µM (active) | EC50 [8]: > 32 µM (inactive)

O=C1c2c(Cl)c(Cl)c(Cl)c(Cl)c2C(=O)N1c1nc(Cc2ccccc2)n[nH]1
IC50 [16]: > 100 µM (not active) | IC50 [17]: > 100 µM (inactive)

CCCCCCn1c(N2CCN(c3ccccc3)CC2)nc2c1c(=O)n(C)c(=O)n2C
EC50 [1]: 6.68 µM (active) | EC50 [18]: > 20 µM (not active) | EC50 [19]: > 20 µM (not active)

COc1cc(C(=S)NCc2ccc(Cl)c(C)c2)ccc1O
IC50 [20]: > 100 µM (inactive) | IC50 [4]: 3.06 µM (active)
